Experimental data from ChEMBL document CHEMBL1201862, “PubChem BioAssay data set” (2004).
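Five concentrations, 48 hours, 96-well plates. The concentration for 50% growth inhibition is given as GI50.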 Calls of active or inactive are those of the source. Cut-off read from the data, not from the text of the source: active = GI50 up to about 1.1 µM and inactive = higher.

Assays:
Test in all cases: DTP human tumour cell line panel, 48 h
CCRF-CEM = system: CCRF-CEM
NCI-H522 = system: NCI-H522
SNB-19 = system: SNB-19
NCI/ADR-RES = system: NCI/ADR-RES
EKVX = system: EKVX
DMS-273 = system: DMS-273
UO-31 = system: UO-31
COLO 205 = system: COLO 205
M19-MEL = system: M19-MEL
DLD-1 = system: DLD-1
SF-268 = system: SF-268
U-251 = system: U-251
NCI-H226 = system: NCI-H226
A498 = system: A498
HOP-18 = system: HOP-18
K562 = system: K562
NCI-H23 = system: NCI-H23
A549 = system: A549
SK-MEL-28 = system: SK-MEL-28
HOP-92 = system: HOP-92
HCT-116 = system: HCT-116
KM-20L2 = system: KM-20L2
OVCAR-8 = system: OVCAR-8
LOX IMVI = system: LOX IMVI
Malme-3M = system: Malme-3M
HL-60 = system: HL-60
OVCAR-5 = system: OVCAR-5
OVCAR-4 = system: OVCAR-4
SK-OV-3 = system: SK-OV-3
SNB-75 = system: SNB-75
UACC-62 = system: UACC-62
SW-620 = system: SW-620
IGROV-1 = system: IGROV-1
NCI-H460 = system: NCI-H460
MCF7 = system: MCF7
RXF 393 = system: RXF 393
MOLT-4 = system: MOLT-4
SK-MEL-5 = system: SK-MEL-5
KM12 = system: KM12
SNB-78 = system: SNB-78
SN12C = system: SN12C
OVCAR-3 = system: OVCAR-3
DMS-114 = system: DMS-114
HCC 2998 = system: HCC 2998
SF-295 = system: SF-295
UACC-257 = system: UACC-257
SK-MEL-2 = system: SK-MEL-2
HT-29 = system: HT-29
RPMI-8226 = system: RPMI-8226
XF498 = system: XF498
HCT-15 = system: HCT-15
HOP-62 = system: HOP-62
SF-539 = system: SF-539
MDA-MB-231 = system: MDA-MB-231
MDA-N = system: MDA-N
786-0 = system: 786-0
TK-10 = system: TK-10
T47D = system: T47D
Hs-578T = system: Hs-578T
ACHN = system: ACHN
M14 = system: M14
PC-3 = system: PC-3
SR = system: SR
BT-549 = system: BT-549
MDA-MB-435 = system: MDA-MB-435
DU-145 = system: DU-145

CSCC[C@@H](NC(=O)[C@H](CC(C)C)NC(=O)C(Cc1cnc[nH]1)NC(=O)CNC(=O)[C@@H](NC(=O)[C@H](C)NC(=O)[C@H](Cc1c[nH]c2ccccc12)NC(=O)[C@H](CCC(N)=O)NC(=O)[C@@H](N)CC(N)=O)C(C)C)C(N)=O (stereo partly drawn)
GI50 (CCRF-CEM): > 100000 nM (inactive) | GI50 (NCI-H522): > 100000 nM (inactive) | GI50 (SNB-19): > 100000 nM (inactive) | GI50 (NCI/ADR-RES): > 100000 nM (inactive) | GI50 (EKVX): > 100000 nM (inactive) | GI50 (DMS-273): > 100000 nM (inactive) | GI50 (UO-31): > 100000 nM (inactive) | GI50 (COLO 205): > 100000 nM (inactive) | GI50 (M19-MEL): > 100000 nM (inactive) | GI50 (DLD-1): > 100000 nM (inactive) | GI50 (SF-268): > 100000 nM (inactive) | GI50 (U-251): > 100000 nM (inactive) | GI50 (NCI-H226): > 100000 nM (inactive) | GI50 (A498): > 100000 nM (inactive) | GI50 (HOP-18): > 100000 nM (inactive) | GI50 (K562): > 100000 nM (inactive) | GI50 (NCI-H23): > 100000 nM (inactive) | GI50 (A549): > 100000 nM (inactive) | GI50 (SK-MEL-28): > 100000 nM (inactive) | GI50 (HOP-92): > 100000 nM (inactive) | GI50 (HCT-116): > 100000 nM (inactive) | GI50 (KM-20L2): > 100000 nM (inactive) | GI50 (OVCAR-8): > 100000 nM (inactive) | GI50 (LOX IMVI): 99800 nM (inactive) | GI50 (Malme-3M): > 100000 nM (inactive) | GI50 (HL-60): > 100000 nM (inactive) | GI50 (OVCAR-5): > 100000 nM (inactive) | GI50 (OVCAR-4): > 100000 nM (inactive) | GI50 (SK-OV-3): > 100000 nM (inactive) | GI50 (SNB-75): > 100000 nM (inactive) | GI50 (UACC-62): > 100000 nM (inactive) | GI50 (SW-620): > 100000 nM (inactive) | GI50 (IGROV-1): > 100000 nM (inactive) | GI50 (NCI-H460): > 100000 nM (inactive) | GI50 (MCF7): > 100000 nM (inactive) | GI50 (RXF 393): > 100000 nM (inactive) | GI50 (MOLT-4): > 55700 nM (inactive) | GI50 (SK-MEL-5): > 100000 nM (inactive) | GI50 (KM12): > 100000 nM (inactive) | GI50 (SNB-78): > 100000 nM (inactive) | GI50 (SN12C): > 100000 nM (inactive) | GI50 (OVCAR-3): > 100000 nM (inactive) | GI50 (DMS-114): > 100000 nM (inactive) | GI50 (HCC 2998): > 100000 nM (inactive) | GI50 (SF-295): > 100000 nM (inactive) | GI50 (UACC-257): > 88700 nM (inactive) | GI50 (SK-MEL-2): > 100000 nM (inactive) | GI50 (HT-29): > 100000 nM (inactive) | GI50 (RPMI-8226): > 100000 nM (inactive) | GI50 (XF498): > 100000 nM (inactive) | GI50 (HCT-15): > 100000 nM | GI50 (HOP-62): > 100000 nM (inactive) | GI50 (SF-539): > 100000 nM (inactive)

Cc1c2cnccc2c(C)c2c1c1ccccc1n2CCCN
GI50 (NCI-H522): 447 nM (active) | GI50 (MDA-MB-231): 171 nM (active) | GI50 (SNB-19): 424 nM (active) | GI50 (NCI/ADR-RES): 299 nM (active) | GI50 (EKVX): 525 nM (active) | GI50 (DMS-273): 133 nM (active) | GI50 (UO-31): 830 nM (active) | GI50 (COLO 205): 222 nM (active) | GI50 (MDA-N): 226 nM (active) | GI50 (M19-MEL): 262 nM (active) | GI50 (DLD-1): 116 nM (active) | GI50 (U-251): 258 nM (active) | GI50 (NCI-H226): 873 nM (active) | GI50 (786-0): 66.7 nM (active) | GI50 (A498): 871 nM (active) | GI50 (HOP-18): 492 nM (active) | GI50 (TK-10): 326 nM (active) | GI50 (K562): 138 nM (active) | GI50 (NCI-H23): 474 nM (active) | GI50 (A549): 408 nM (active) | GI50 (SK-MEL-28): 857 nM (active) | GI50 (HOP-92): 281 nM (active) | GI50 (HCT-116): 92.9 nM (active) | GI50 (KM-20L2): 183 nM (active) | GI50 (OVCAR-8): 259 nM (active) | GI50 (LOX IMVI): 109 nM (active) | GI50 (Malme-3M): 982 nM (active) | GI50 (T47D): 526 nM (active) | GI50 (OVCAR-5): 667 nM (active) | GI50 (Hs-578T): 374 nM (active) | GI50 (OVCAR-4): 140 nM (active) | GI50 (ACHN): 243 nM (active) | GI50 (SK-OV-3): 740 nM (active) | GI50 (SNB-75): 736 nM (active) | GI50 (UACC-62): 693 nM (active) | GI50 (SW-620): 78.7 nM (active) | GI50 (IGROV-1): 506 nM (active) | GI50 (MCF7): 282 nM (active) | GI50 (RXF 393): 301 nM (active) | GI50 (MOLT-4): 84.3 nM (active) | GI50 (SK-MEL-5): 755 nM (active) | GI50 (M14): 276 nM (active) | GI50 (PC-3): 121 nM (active) | GI50 (KM12): 137 nM (active) | GI50 (SNB-78): 760 nM (active) | GI50 (SN12C): 401 nM (active) | GI50 (SR): < 10 nM (active) | GI50 (BT-549): 1460 nM (inactive) | GI50 (DMS-114): 310 nM (active) | GI50 (HCC 2998): 615 nM (active) | GI50 (UACC-257): 1090 nM (active) | GI50 (SK-MEL-2): 721 nM (active) | GI50 (HT-29): 206 nM (active) | GI50 (RPMI-8226): 153 nM (active) | GI50 (XF498): 713 nM (active) | GI50 (HCT-15): 169 nM | GI50 (HOP-62): 637 nM (active) | GI50 (MDA-MB-435): 129 nM (active) | GI50 (SF-539): 582 nM (active) | GI50 (DU-145): 104 nM (active)
